target: T1, chimeric human H3 receptor (Homo sapiens, UniProt Q9Y5N1); assay: Chimeric human H3 receptor screening GTP binding assay (inhibition of histamine-stimulated GTP-gamma35S binding, Example 8); format: biochemical; details: 1 h; assay described in Example 8; symbol "!" in column headed Ki; read-out: Ki ("!": percent inhibition of agonist-induced GTP-gammaS binding to H3)
T1 construct: rat Galpha-i2 (Gnai2, rat); made in house; host or cells: Sf9 insect cells (baculovirus); P2 membranes
Summary of the method: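 Sf9 membranes co-expressing chimeric human H3 receptor and heterotrimeric G-protein (35 μg protein) incubated 60 min at room temperature with 4 μM compound, 1 μM histamine and 125 pM GTP-gamma35S in pH 7.4 buffer with 10 μM GDP. Filter-bound radioactivity, nonspecific (10 μM GTP-gammaS) subtracted, reported as % inhibition of histamine signal.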

T1 sequence (Q9Y5N1 with tags, fused parts or gaps): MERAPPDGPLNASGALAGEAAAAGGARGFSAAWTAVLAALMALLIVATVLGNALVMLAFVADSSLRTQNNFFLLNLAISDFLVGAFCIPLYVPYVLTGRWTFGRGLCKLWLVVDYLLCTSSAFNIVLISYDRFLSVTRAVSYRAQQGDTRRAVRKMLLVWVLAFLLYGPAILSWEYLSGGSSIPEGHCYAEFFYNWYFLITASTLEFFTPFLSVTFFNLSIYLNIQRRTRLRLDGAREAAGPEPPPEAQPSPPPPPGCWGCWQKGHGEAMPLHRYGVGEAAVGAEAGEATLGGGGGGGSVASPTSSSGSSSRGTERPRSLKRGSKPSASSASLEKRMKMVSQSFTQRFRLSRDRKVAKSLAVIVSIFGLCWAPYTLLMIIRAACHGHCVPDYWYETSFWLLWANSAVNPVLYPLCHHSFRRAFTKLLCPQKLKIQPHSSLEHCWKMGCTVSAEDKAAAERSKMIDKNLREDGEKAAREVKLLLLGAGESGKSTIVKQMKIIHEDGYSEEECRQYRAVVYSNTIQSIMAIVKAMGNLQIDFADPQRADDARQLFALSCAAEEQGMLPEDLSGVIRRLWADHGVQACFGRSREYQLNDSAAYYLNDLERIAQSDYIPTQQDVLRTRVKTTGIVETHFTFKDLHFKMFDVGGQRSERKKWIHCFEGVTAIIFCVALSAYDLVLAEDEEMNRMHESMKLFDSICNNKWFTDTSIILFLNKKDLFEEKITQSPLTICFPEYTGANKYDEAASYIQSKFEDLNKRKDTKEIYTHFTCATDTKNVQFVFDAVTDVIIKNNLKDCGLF

inhibition at 4 µM [%] | Structure (SMILES)
≥ 90 | COc1cc(Cl)ccc1C(=O)N1CCc2cnc(N3CCN(C4CCC4)CC3)nc2CC1 [Compound 421, 7-(4-chloro-2-methoxybenzoyl)-2-(4-cyclobutylpiperazin-1-yl)-6,7,8,9-tetrahydro-5H-pyrimido[4,5-d]azepine]
≥ 90 | CCOc1ccccc1/C=C/C(=O)N1CCc2cnc(N3CCN(C4CCC4)CC3)nc2CC1 [Compound 569, 2-(4-cyclobutylpiperazin-1-yl)-7-[(2E)-3-(2-ethoxyphenyl)prop-2-enoyl]-6,7,8,9-tetrahydro-5H-pyrimido[4,5-d]azepine]
≥ 90 | Cc1cc(C(=O)N2CCc3cnc(N4CCN(C5CCC5)CC4)nc3CC2)c(C)o1 [Compound 465, 2-(4-cyclobutylpiperazin-1-yl)-7-(2,5-dimethyl-3-furoyl)-6,7,8,9-tetrahydro-5H-pyrimido[4,5-d]azepine]
≥ 90 | COc1ccc(/C=C/C(=O)N2CCc3cnc(N4CCN(C5CCC5)CC4)nc3CC2)c(OC)c1 [Compound 570, 2-(4-cyclobutylpiperazin-1-yl)-7-[(2E)-3-(2,4-dimethoxyphenyl)prop-2-enoyl]-6,7,8,9-tetrahydro-5H-pyrimido[4,5-d]azepine]
≥ 90 | O=C(c1ccc(F)c(Cl)c1)N1CCc2cnc(N3CCN(C4CCC4)CC3)nc2CC1 [Compound 393, 7-(3-chloro-4-fluorobenzoyl)-2-(4-cyclobutylpiperazin-1-yl)-6,7,8,9-tetrahydro-5H-pyrimido[4,5-d]azepine]
≥ 90 | COc1cc(OC)c(OC)cc1/C=C/C(=O)N1CCc2cnc(N3CCN(C4CCC4)CC3)nc2CC1 [Compound 575, 2-(4-cyclobutylpiperazin-1-yl)-7-[(2E)-3-(2,4,5-trimethoxyphenyl)prop-2-enoyl]-6,7,8,9-tetrahydro-5H-pyrimido[4,5-d]azepine]
≥ 90 | CC(C)(C)c1ccc(Oc2ncccc2C(=O)N2CCc3cnc(N4CCN(C5CCC5)CC4)nc3CC2)cc1 [Compound 494, 7-{[2-(4-tert-butylphenoxy)pyridin-3-yl]carbonyl}-2-(4-cyclobutylpiperazin-1-yl)-6,7,8,9-tetrahydro-5H-pyrimido[4,5-d]azepine]

same assay, conditions: 1 h; assay of Example 8; symbol "!" in column headed Ki; read-out: percent inhibition of agonist-induced GTP-gammaS binding to H3

inhibition at 4 µM [%] | Structure (SMILES)
≥ 90 | O=C(Cc1cc(Cl)ccc1Br)N1CCc2cnc(N3CCN(C4CCC4)CC3)nc2CC1 [Compound 301, 7-[(2-bromo-5-chlorophenyl)acetyl]-2-(4-cyclobutylpiperazin-1-yl)-6,7,8,9-tetrahydro-5H-pyrimido[4,5-d]azepine]

same assay, conditions: symbol ! in Ki; test compound 4 μM, 1 μM histamine; read-out: percent inhibition of agonist-induced GTP-gammaS binding to H3

inhibition at 4 µM [%] | Structure (SMILES)
≥ 90 | Cc1c(F)cccc1CN1CCc2c(ncnc2N2CCN(C3CCC3)CC2)C1 [Compound 97, 4-(4-cyclobutylpiperazin-1-yl)-7-(3-fluoro-2-methylbenzyl)-5,6,7,8-tetrahydropyrido[3,4-d]pyrimidine]
≥ 90 | CCCCN1CCc2nc(N3CCN(C4CCC4)CC3)ncc2C1 [Compound 628, 6-butyl-2-(4-cyclobutylpiperazin-1-yl)-5,6,7,8-tetrahydropyrido[4,3-d]pyrimidine]
≥ 90 | COc1cccc(C(=O)N2CCc3c(ncnc3N3CCN(C4CCC4)CC3)C2)c1 [Compound 26, 4-(4-cyclobutylpiperazin-1-yl)-7-(3-methoxybenzoyl)-5,6,7,8-tetrahydropyrido[3,4-d]pyrimidine]
≥ 90 | COc1ccc(C(=O)N2CCc3c(ncnc3N3CCN(C4CCC4)CC3)C2)cc1 [Compound 27, 4-(4-cyclobutylpiperazin-1-yl)-7-(4-methoxybenzoyl)-5,6,7,8-tetrahydropyrido[3,4-d]pyrimidine]
≥ 90 | O=C(c1cccc(F)c1)N1CCc2c(ncnc2N2CCN(C3CCC3)CC2)C1 [Compound 29, 4-(4-cyclobutylpiperazin-1-yl)-7-(3-fluorobenzoyl)-5,6,7,8-tetrahydropyrido[3,4-d]pyrimidine]
≥ 90 | COc1ccc(CN2CCc3ncnc(N4CCN(C5CCC5)CC4)c3CC2)c(OC)c1 [Compound 158, 4-(4-cyclobutylpiperazin-1-yl)-7-(2,4-dimethoxybenzyl)-6,7,8,9-tetrahydro-5H-pyrimido[4,5-d]azepine]
